Source: the supplement of paper PMC8882468

Test system: HCI-002 (organoid from a triple-negative breast cancer xenograft)
Assay: CTG-3D luminescence at 96 h relative to day-0 seeding control (ratio to day 0); higher = more growth / less cytotoxicity; PDxO 3D drug screen, 96 h, CTG-3D normalised to day-0 seeding control.
Settings: 1 µM; days in culture: 82

Structure (SMILES)	CTG-3D luminescence at 96 h
O=C(c1ccc(F)c(F)c1Nc1ccc(I)cc1F)N1CC(O)([C@@H]2CCCCN2)C1 [cobimetinib]	1.72
C[C@H](NC(=O)CCC(F)(F)F)C(=O)N[C@@H]1C(=O)N(CCO)c2ncccc2-c2ccccc21 [crenigacestat]	2.76
Cc1cc(Nc2ncc(Cl)c(Nc3ccccc3S(=O)(=O)C(C)C)n2)c(OC(C)C)cc1C1CCNCC1 [ceritinib]	1.76
CS(=O)(=O)c1ccc(C(=O)Nc2ccc(Cl)c(-c3ccccn3)c2)c(Cl)c1 [vismodegib]	2.51
NC(=O)c1cccc2cn(-c3ccc([C@@H]4CCCNC4)cc3)nc12 [niraparib]	1.29

Same assay, conditions: 1 µM; days in culture: 91

Structure (SMILES)	CTG-3D luminescence at 96 h
C[C@@H]1COCCN1c1cc(C2([S@](C)(=N)=O)CC2)nc(-c2cc[nH]c3nccc2-3)n1 [ceralasertib]	2.23
CCN1CCN(Cc2ccc(Nc3ncc(F)c(-c4cc(F)c5nc(C)n(C(C)C)c5c4)n3)nc2)CC1 [abemaciclib]	2.17
NC1(C(=O)N[C@@H](CCO)c2ccc(Cl)cc2)CCN(c2nc[nH]c3nccc2-3)CC1 [capivasertib]	2.94
CC(C)n1nc(-c2ccc3oc(N)nc3c2)c2c(N)ncnc21 [sapanisertib]	0.846
O=C(c1ccc(F)c(F)c1Nc1ccc(I)cc1F)N1CC(O)([C@@H]2CCCCN2)C1 [cobimetinib]	1.55
C[C@H](NC(=O)CCC(F)(F)F)C(=O)N[C@@H]1C(=O)N(CCO)c2ncccc2-c2ccccc21 [crenigacestat]	3.36
Cc1cc(Nc2ncc(Cl)c(Nc3ccccc3S(=O)(=O)C(C)C)n2)c(OC(C)C)cc1C1CCNCC1 [ceritinib]	3.29
CS(=O)(=O)c1ccc(C(=O)Nc2ccc(Cl)c(-c3ccccn3)c2)c(Cl)c1 [vismodegib]	1.77
NC(=O)c1cccc2cn(-c3ccc([C@@H]4CCCNC4)cc3)nc12 [niraparib]	1.11

Same assay, conditions: 1 µM; days in culture: 191

Structure (SMILES)	CTG-3D luminescence at 96 h
C[C@@H]1COCCN1c1cc(C2([S@](C)(=N)=O)CC2)nc(-c2cc[nH]c3nccc2-3)n1 [ceralasertib]	1.91
CCN1CCN(Cc2ccc(Nc3ncc(F)c(-c4cc(F)c5nc(C)n(C(C)C)c5c4)n3)nc2)CC1 [abemaciclib]	2.34
NC1(C(=O)N[C@@H](CCO)c2ccc(Cl)cc2)CCN(c2nc[nH]c3nccc2-3)CC1 [capivasertib]	2.45
CC(C)n1nc(-c2ccc3oc(N)nc3c2)c2c(N)ncnc21 [sapanisertib]	0.718
O=C(c1ccc(F)c(F)c1Nc1ccc(I)cc1F)N1CC(O)([C@@H]2CCCCN2)C1 [cobimetinib]	1.67
C[C@H](NC(=O)CCC(F)(F)F)C(=O)N[C@@H]1C(=O)N(CCO)c2ncccc2-c2ccccc21 [crenigacestat]	2.46
Cc1cc(Nc2ncc(Cl)c(Nc3ccccc3S(=O)(=O)C(C)C)n2)c(OC(C)C)cc1C1CCNCC1 [ceritinib]	2.23
CS(=O)(=O)c1ccc(C(=O)Nc2ccc(Cl)c(-c3ccccn3)c2)c(Cl)c1 [vismodegib]	3.62
NC(=O)c1cccc2cn(-c3ccc([C@@H]4CCCNC4)cc3)nc12 [niraparib]	1.99

Same assay, conditions: 1 µM; days in culture: 209

Structure (SMILES)	CTG-3D luminescence at 96 h
C[C@@H]1COCCN1c1cc(C2([S@](C)(=N)=O)CC2)nc(-c2cc[nH]c3nccc2-3)n1 [ceralasertib]	1.41
CCN1CCN(Cc2ccc(Nc3ncc(F)c(-c4cc(F)c5nc(C)n(C(C)C)c5c4)n3)nc2)CC1 [abemaciclib]	1.49
NC1(C(=O)N[C@@H](CCO)c2ccc(Cl)cc2)CCN(c2nc[nH]c3nccc2-3)CC1 [capivasertib]	1.96
CC(C)n1nc(-c2ccc3oc(N)nc3c2)c2c(N)ncnc21 [sapanisertib]	0.446
O=C(c1ccc(F)c(F)c1Nc1ccc(I)cc1F)N1CC(O)([C@@H]2CCCCN2)C1 [cobimetinib]	1.43
C[C@H](NC(=O)CCC(F)(F)F)C(=O)N[C@@H]1C(=O)N(CCO)c2ncccc2-c2ccccc21 [crenigacestat]	2.27
Cc1cc(Nc2ncc(Cl)c(Nc3ccccc3S(=O)(=O)C(C)C)n2)c(OC(C)C)cc1C1CCNCC1 [ceritinib]	2.03
CS(=O)(=O)c1ccc(C(=O)Nc2ccc(Cl)c(-c3ccccn3)c2)c(Cl)c1 [vismodegib]	2.77
NC(=O)c1cccc2cn(-c3ccc([C@@H]4CCCNC4)cc3)nc12 [niraparib]	1.18

Same assay, conditions: 1 µM; days in culture: 227

Structure (SMILES)	CTG-3D luminescence at 96 h
C[C@@H]1COCCN1c1cc(C2([S@](C)(=N)=O)CC2)nc(-c2cc[nH]c3nccc2-3)n1 [ceralasertib]	3.08
CCN1CCN(Cc2ccc(Nc3ncc(F)c(-c4cc(F)c5nc(C)n(C(C)C)c5c4)n3)nc2)CC1 [abemaciclib]	3.24
NC1(C(=O)N[C@@H](CCO)c2ccc(Cl)cc2)CCN(c2nc[nH]c3nccc2-3)CC1 [capivasertib]	5.16
CC(C)n1nc(-c2ccc3oc(N)nc3c2)c2c(N)ncnc21 [sapanisertib]	0.801
O=C(c1ccc(F)c(F)c1Nc1ccc(I)cc1F)N1CC(O)([C@@H]2CCCCN2)C1 [cobimetinib]	2.78
C[C@H](NC(=O)CCC(F)(F)F)C(=O)N[C@@H]1C(=O)N(CCO)c2ncccc2-c2ccccc21 [crenigacestat]	4.74
Cc1cc(Nc2ncc(Cl)c(Nc3ccccc3S(=O)(=O)C(C)C)n2)c(OC(C)C)cc1C1CCNCC1 [ceritinib]	4.45
CS(=O)(=O)c1ccc(C(=O)Nc2ccc(Cl)c(-c3ccccn3)c2)c(Cl)c1 [vismodegib]	3.49
NC(=O)c1cccc2cn(-c3ccc([C@@H]4CCCNC4)cc3)nc12 [niraparib]	2.08

Same assay, conditions: 10 µM; days in culture: 62

Structure (SMILES)	CTG-3D luminescence at 96 h
C[C@@H]1COCCN1c1cc(C2([S@](C)(=N)=O)CC2)nc(-c2cc[nH]c3nccc2-3)n1 [ceralasertib]	1.12
CCN1CCN(Cc2ccc(Nc3ncc(F)c(-c4cc(F)c5nc(C)n(C(C)C)c5c4)n3)nc2)CC1 [abemaciclib]	0.212
NC1(C(=O)N[C@@H](CCO)c2ccc(Cl)cc2)CCN(c2nc[nH]c3nccc2-3)CC1 [capivasertib]	2.26
CC(C)n1nc(-c2ccc3oc(N)nc3c2)c2c(N)ncnc21 [sapanisertib]	0.418
O=C(c1ccc(F)c(F)c1Nc1ccc(I)cc1F)N1CC(O)([C@@H]2CCCCN2)C1 [cobimetinib]	0.777
C[C@H](NC(=O)CCC(F)(F)F)C(=O)N[C@@H]1C(=O)N(CCO)c2ncccc2-c2ccccc21 [crenigacestat]	2.72
Cc1cc(Nc2ncc(Cl)c(Nc3ccccc3S(=O)(=O)C(C)C)n2)c(OC(C)C)cc1C1CCNCC1 [ceritinib]	0.00947
CS(=O)(=O)c1ccc(C(=O)Nc2ccc(Cl)c(-c3ccccn3)c2)c(Cl)c1 [vismodegib]	2.96
NC(=O)c1cccc2cn(-c3ccc([C@@H]4CCCNC4)cc3)nc12 [niraparib]	0.533

Same assay, conditions: 10 µM; days in culture: 82

Structure (SMILES)	CTG-3D luminescence at 96 h
C[C@@H]1COCCN1c1cc(C2([S@](C)(=N)=O)CC2)nc(-c2cc[nH]c3nccc2-3)n1 [ceralasertib]	0.818
CCN1CCN(Cc2ccc(Nc3ncc(F)c(-c4cc(F)c5nc(C)n(C(C)C)c5c4)n3)nc2)CC1 [abemaciclib]	0.0326
NC1(C(=O)N[C@@H](CCO)c2ccc(Cl)cc2)CCN(c2nc[nH]c3nccc2-3)CC1 [capivasertib]	1.51
CC(C)n1nc(-c2ccc3oc(N)nc3c2)c2c(N)ncnc21 [sapanisertib]	0.403
O=C(c1ccc(F)c(F)c1Nc1ccc(I)cc1F)N1CC(O)([C@@H]2CCCCN2)C1 [cobimetinib]	0.519
C[C@H](NC(=O)CCC(F)(F)F)C(=O)N[C@@H]1C(=O)N(CCO)c2ncccc2-c2ccccc21 [crenigacestat]	2.69
Cc1cc(Nc2ncc(Cl)c(Nc3ccccc3S(=O)(=O)C(C)C)n2)c(OC(C)C)cc1C1CCNCC1 [ceritinib]	0.00838
CS(=O)(=O)c1ccc(C(=O)Nc2ccc(Cl)c(-c3ccccn3)c2)c(Cl)c1 [vismodegib]	2.14
NC(=O)c1cccc2cn(-c3ccc([C@@H]4CCCNC4)cc3)nc12 [niraparib]	0.381

Same assay, conditions: 10 µM; days in culture: 91

Structure (SMILES)	CTG-3D luminescence at 96 h
C[C@@H]1COCCN1c1cc(C2([S@](C)(=N)=O)CC2)nc(-c2cc[nH]c3nccc2-3)n1 [ceralasertib]	1.3
CCN1CCN(Cc2ccc(Nc3ncc(F)c(-c4cc(F)c5nc(C)n(C(C)C)c5c4)n3)nc2)CC1 [abemaciclib]	1.95
NC1(C(=O)N[C@@H](CCO)c2ccc(Cl)cc2)CCN(c2nc[nH]c3nccc2-3)CC1 [capivasertib]	3.16
CC(C)n1nc(-c2ccc3oc(N)nc3c2)c2c(N)ncnc21 [sapanisertib]	0.697
O=C(c1ccc(F)c(F)c1Nc1ccc(I)cc1F)N1CC(O)([C@@H]2CCCCN2)C1 [cobimetinib]	0.722
C[C@H](NC(=O)CCC(F)(F)F)C(=O)N[C@@H]1C(=O)N(CCO)c2ncccc2-c2ccccc21 [crenigacestat]	3.56
Cc1cc(Nc2ncc(Cl)c(Nc3ccccc3S(=O)(=O)C(C)C)n2)c(OC(C)C)cc1C1CCNCC1 [ceritinib]	0.00341
CS(=O)(=O)c1ccc(C(=O)Nc2ccc(Cl)c(-c3ccccn3)c2)c(Cl)c1 [vismodegib]	2.07
NC(=O)c1cccc2cn(-c3ccc([C@@H]4CCCNC4)cc3)nc12 [niraparib]	0.377

Same assay, conditions: 10 µM; days in culture: 191

Structure (SMILES)	CTG-3D luminescence at 96 h
C[C@@H]1COCCN1c1cc(C2([S@](C)(=N)=O)CC2)nc(-c2cc[nH]c3nccc2-3)n1 [ceralasertib]	0.976
CCN1CCN(Cc2ccc(Nc3ncc(F)c(-c4cc(F)c5nc(C)n(C(C)C)c5c4)n3)nc2)CC1 [abemaciclib]	0.748
NC1(C(=O)N[C@@H](CCO)c2ccc(Cl)cc2)CCN(c2nc[nH]c3nccc2-3)CC1 [capivasertib]	1.75
CC(C)n1nc(-c2ccc3oc(N)nc3c2)c2c(N)ncnc21 [sapanisertib]	0.443
O=C(c1ccc(F)c(F)c1Nc1ccc(I)cc1F)N1CC(O)([C@@H]2CCCCN2)C1 [cobimetinib]	0.799
C[C@H](NC(=O)CCC(F)(F)F)C(=O)N[C@@H]1C(=O)N(CCO)c2ncccc2-c2ccccc21 [crenigacestat]	2.35
Cc1cc(Nc2ncc(Cl)c(Nc3ccccc3S(=O)(=O)C(C)C)n2)c(OC(C)C)cc1C1CCNCC1 [ceritinib]	0.00759
CS(=O)(=O)c1ccc(C(=O)Nc2ccc(Cl)c(-c3ccccn3)c2)c(Cl)c1 [vismodegib]	2.89
NC(=O)c1cccc2cn(-c3ccc([C@@H]4CCCNC4)cc3)nc12 [niraparib]	0.811
